Assay results as given in ChEMBL document CHEMBL4219066, “Identification and Mitigation of Reactive Metabolites of 2-Aminoimidazole-Containing Microsomal Prostaglandin E Synthase-1 Inhibitors Terminated Due to Clinical Drug-Induced Liver Injury” (J Med Chem, 2018).

What was measured:
[1] = Drug metabolism in rat hepatocytes assessed as 2-(difluoromethyl)-5-((3-hydroxy-2,2-dimethylpropanamido)methyl)-N-(4-methyl-5-(4-(trifluoromethyl)phenyl)-1H-imidazol-2-yl)nicotinamide formation at 2 uM after 4 hrs by LC-MS/MS analysis; type: ADME, cell-based, Hepatocyte
[2] = Drug metabolism in dog hepatocytes assessed as 2-(difluoromethyl)-5-((3-hydroxy-2,2-dimethylpropanamido)methyl)-N-(4-(hydroxymethyl)-5-(4-(trifluoromethyl)phenyl)-1H-imidazol-2-yl)nicotinamide formation at 2 uM after 4 hrs by LC-MS/MS analysis; type: ADME, cell-based, Canis lupus familiaris, Hepatocyte
[3] = Drug metabolism in dog hepatocytes assessed as M2 metabolite formation at 2 uM after 4 hrs by LC-MS/MS analysis; type: ADME, cell-based, Canis lupus familiaris, Hepatocyte
[4] = Drug metabolism in human liver microsomes assessed as M5 metabolite formation at 2 uM in presence of 1:1 ratio of unlabeled GSH and [glycine 13C2,15N]-labelled GSH after 0.5 hrs by HPLC-MS analysis; type: ADME, microsome
[5] = Drug metabolism in rat hepatocytes assessed as M2 metabolite formation at 2 uM after 4 hrs by LC-MS/MS analysis; type: ADME, cell-based, Hepatocyte
[6] = Drug metabolism in human liver microsomes assessed as metabolite M6 formation at 2 uM in presence of 1:1 ratio of unlabeled GSH and [glycine 13C2,15N]-labelled GSH after 0.5 hrs by HPLC-MS analysis; type: ADME, microsome
[7] = Drug metabolism in human hepatocytes assessed as N-carbamimidoyl-2-(difluoromethyl)-5-(pivalamidomethyl)nicotinamide formation at 2 uM after 4 hrs by LC-MS/MS analysis; type: ADME, cell-based, Hepatocyte
[8] = Drug metabolism in rat hepatocytes assessed as N-carbamimidoyl-2-(difluoromethyl)-5-(pivalamidomethyl)nicotinamide formation at 2 uM after 4 hrs by LC-MS/MS analysis; type: ADME, cell-based, Hepatocyte
[9] = Drug metabolism in Sprague-Dawley rat plasma assessed as N-(4-methyl-5-(4-(trifluoromethyl)phenyl)-1H-imidazol-2-yl)acetamide formation at 1000 mg/kg, po measured after 2 hrs post dose by LC/MS analysis; type: ADME, organism-based; details: in vivo
[10] = Drug metabolism in human hepatocytes assessed as 2-(difluoromethyl)-5-((3-hydroxy-2,2-dimethylpropanamido)methyl)-N-(4-methyl-5-(4-(trifluoromethyl)phenyl)-1H-imidazol-2-yl)nicotinamide formation at 2 uM after 4 hrs by LC-MS/MS analysis; type: ADME, cell-based, Hepatocyte
[11] = Drug metabolism in Beagle dog plasma assessed as N-(4-methyl-5-(4-(trifluoromethyl)phenyl)-1H-imidazol-2-yl)acetamide formation at 300 to 600 mg/kg, po measured after 2 hrs post dose by LC/MS analysis; type: ADME, organism-based, Canis lupus familiaris; details: in vivo
[12] = Drug metabolism in Beagle dog plasma assessed as (2S,3S,4S,5R,6R)-3,4,5-trihydroxy-6-(4-methyl-5-(4-(trifluoromethyl)phenyl)-1H-imidazol-2-ylamino)tetrahydro-2H-pyran-2-carboxylic acid formation at 300 to 600 mg/kg, po measured after 2 hrs post dose by LC/MS analysis; type: ADME, organism-based, Canis lupus familiaris; details: in vivo
[13] = Drug metabolism in human hepatocytes assessed as M2 metabolite formation at 2 uM after 4 hrs by LC-MS/MS analysis; type: ADME, cell-based, Hepatocyte
[14] = Drug metabolism in dog hepatocytes assessed as 2-(difluoromethyl)-5-((3-hydroxy-2,2-dimethylpropanamido)methyl)-N-(4-methyl-5-(4-(trifluoromethyl)phenyl)-1H-imidazol-2-yl)nicotinamide formation at 2 uM after 4 hrs by LC-MS/MS analysis; type: ADME, cell-based, Canis lupus familiaris, Hepatocyte
[15] = Drug metabolism in human liver microsomes assessed as metabolite M2 formation at 2 uM in presence of 1:1 ratio of unlabeled GSH and [glycine 13C2,15N]-labelled GSH after 0.5 hrs by HPLC-MS analysis; type: ADME, microsome
[16] = Drug metabolism in dog hepatocytes assessed as N-carbamimidoyl-2-(difluoromethyl)-5-(pivalamidomethyl)nicotinamide formation at 2 uM after 4 hrs by LC-MS/MS analysis; type: ADME, cell-based, Canis lupus familiaris, Hepatocyte

Drug metabolism [1]: Metabolite_Detected
Drug metabolism [2]: Metabolite_Detected
Drug metabolism [3]: Metabolite_Detected
Drug metabolism [4]: Metabolite_Detected
Drug metabolism [5]: Metabolite_Detected
Drug metabolism [6]: Metabolite_Detected
Drug metabolism [7]: Metabolite_Detected
Drug metabolism [8]: Metabolite_Detected
Drug metabolism [9]: Metabolite_Detected
Drug metabolism [10]: Metabolite_Detected
Drug metabolism [11]: Metabolite_Detected
Drug metabolism [12]: Metabolite_Detected
Drug metabolism [13]: Metabolite_Detected
Drug metabolism [14]: Metabolite_Detected
Drug metabolism [15]: Metabolite_Detected
Drug metabolism [16]: Metabolite_Detected
SMILES: Cc1nc(NC(=O)c2cc(CNC(=O)C(C)(C)C)cnc2C(F)F)[nH]c1-c1ccc(C(F)(F)F)cc1
